Patent US20250214990A1, “DIACYLGLYCEROL KINASE (DGK) ALPHA INHIBITORS AND USES THEREOF” (Insilico Medicine IP Limited, priority 2022, published 2025)
pEC50, pIC50: −log10 of the molar value.

Assays:
[1] = tested on: Human Pan T cells; test: IL-2 Release Detection Assay; assay type: cell-based; conditions: T-cell; for pEC50: IL-2 in supernatant by ELISA, anti-CD3 pre-coated plate, 24 hours; for maximal fold induction: Top activation/DMSO control; for activity at 0.1 µM: curve value at 100 nM/DMSO control*100%, read-out: Activation % at 100 nM
Protocol: Isolate Human Pan T cells from PBMC according to T cell isolation kit (Stemcell, 17951). The suspend T cell in RPMI 1640 medium containing 10% FBS, 1% PS and 55 µM β-Mer at a density of 3*10^6 cells/well/3 ml are seeded into 6 well plate, recovered overnight at 37° C.&[…]. Harvest overnight recovered T cells are suspended in fresh RPMI1640 medium containing 10% FBS, 1% PS and 55 μM f-Mer, seeded 1*10^5/well/200 μl cells into the anti-CD3 pre-coated 96 well plate. Add dilutions of compounds into the cells and incubate at 37° C.&5% CO2 for 24 hours. IL-2 in cell supernatant was detected by ELISA Kit (R&D, DY202). Fit the compound EC50 in non-linear regression equation: Y=Bottom+(Top−Bottom)/(1+10^((Log EC50−X)*HillSlope)), X=compound concentration, Y=Activation %. Top and Bottom: Plateaus in same units as Y. Log EC50: same log units as X. Activation fold: Top activation/DMSO control. Activation % at 100 nM: Activation of non-linear regression equation curve at the concentration of 100 nM/DMSO control*100%.

[2] = Rat PK profile after oral administration; assay type: in vivo, Male SD rats; conditions: for AUC(0-t) / Cmax / AUC(0-inf) / half-life: male, SD, plasma, rat, oral, 5 mg/kg; for T1/2, Cmax and AUC compared with compound: rat PK evaluation, comparison in words
Protocol: Species and strain: Male SD rats of SPF. Source: Sino-British SIPPR/BK Lab Animal Ltd, Shanghai. 3 rats were orally gavage administrated with given compounds (Formulation: 5% DMSO+10% Solutol+85% Saline). The blood samples were taken via submandibular vein or other suitable vein at timepoints 0.25 h, 0.5 h, 1 h, 2 h, 4 h, 6 h, 8 h and 24 h after oral gavage administration, 0.15 mL/time point. Blood samples were placed in tubes containing K2-EDTA and stored on ice until centrifuged. The blood samples were centrifuged at 6800 g for 6 minutes at 2-8° C. within 1 h after collected and stored frozen at approximately −80° C. An aliquot of 30 μL plasma samples were protein precipitated with 300 μL MeOH in which contains 100 ng/mL Verapamil (IS). The mixture was vortexed for 1 min and centrifuged at 18000 g for 7 min. Transfer 300 μL supernatant to 96 well plates. An aliquot of 8 μL supernatant was injected for LC-MS/MS analysis by LC-MS/MS-12 (TQ5500) instrument. The analytical results were confirmed using quality control samples for intra-assay variation. The accuracy of >66.7% of the quality control samples should be between 80-120% of the known value(s). Standard set of parameters including Area Under the Curve (AUC(0-t) and AUC(0-∞)), elimination half-live (T1/2), maximum plasma concentration (Cmax), will be calculated using noncompartmental analysis modules in FDA certified pharmacokinetic program Phoenix WinNonlin 7.0 (Pharsight, USA).

[3] = Mouse PK profile after oral administration; assay type: in vivo, Male CD-1 mice; conditions: for AUC(0-inf) / AUC(0-t) / Cmax / half-life: male, CD-1, plasma, mouse, oral, 5 mg/kg; for T1/2, Cmax and AUC compared with compound: mouse PK evaluation, comparison in words
Protocol: Species and strain: Male CD-1 mice of SPF. Source: Sino-British SIPPR/BK Lab Animal Ltd, Shanghai. 3 mice were orally gavage administrated with given compounds (Formulation: 5% DMSO+10% Solutol+85% Saline). The blood samples were taken via cephalic vein at timepoints 0.25 h, 0.5 h, 1 h, 2 h, 4 h, 6 h, 8 h and 24 h after oral gavage administration, 30 μL/time point. Blood samples were placed in tubes containing K2-EDTA and stored on ice until centrifuged. The blood samples were centrifuged at 6800 g for 6 minutes at 2-8° C. within 1 h after collected and stored frozen at approximately −80° C. An aliquot of 10 μL plasma samples were protein precipitated with 200 μL MeOH in which contains 10 ng/mL Verapamil (IS). The mixture was vortexed for 1 min and centrifuged at 18000 g for 7 min. Transfer 180 μL supernatant to 96 well plates. An aliquot of 6 μL supernatant was injected for LC-MS/MS analysis by LC-MS/MS-04 (API4000) instrument. The analytical results were confirmed using quality control samples for intra-assay variation. The accuracy of >66.7% of the quality control samples should be between 80-120% of the known value(s). Standard set of parameters including Area Under the Curve (AUC(0-t) and AUC(0-∞)), elimination half-live (T½), maximum plasma concentration (Cmax), will be calculated using noncompartmental analysis modules in FDA certified pharmacokinetic program Phoenix WinNonlin 7.0 (Pharsight, USA).

[4] = target: T1, DGKA (Homo sapiens, UniProt P23743); test: DGKA Inhibition ADP-Glo Assay; assay type: biochemical; conditions: 40 μM ATP
T1 construct: purchased SignalChem D21-10BG
T1 sequence (P23743 whole entry): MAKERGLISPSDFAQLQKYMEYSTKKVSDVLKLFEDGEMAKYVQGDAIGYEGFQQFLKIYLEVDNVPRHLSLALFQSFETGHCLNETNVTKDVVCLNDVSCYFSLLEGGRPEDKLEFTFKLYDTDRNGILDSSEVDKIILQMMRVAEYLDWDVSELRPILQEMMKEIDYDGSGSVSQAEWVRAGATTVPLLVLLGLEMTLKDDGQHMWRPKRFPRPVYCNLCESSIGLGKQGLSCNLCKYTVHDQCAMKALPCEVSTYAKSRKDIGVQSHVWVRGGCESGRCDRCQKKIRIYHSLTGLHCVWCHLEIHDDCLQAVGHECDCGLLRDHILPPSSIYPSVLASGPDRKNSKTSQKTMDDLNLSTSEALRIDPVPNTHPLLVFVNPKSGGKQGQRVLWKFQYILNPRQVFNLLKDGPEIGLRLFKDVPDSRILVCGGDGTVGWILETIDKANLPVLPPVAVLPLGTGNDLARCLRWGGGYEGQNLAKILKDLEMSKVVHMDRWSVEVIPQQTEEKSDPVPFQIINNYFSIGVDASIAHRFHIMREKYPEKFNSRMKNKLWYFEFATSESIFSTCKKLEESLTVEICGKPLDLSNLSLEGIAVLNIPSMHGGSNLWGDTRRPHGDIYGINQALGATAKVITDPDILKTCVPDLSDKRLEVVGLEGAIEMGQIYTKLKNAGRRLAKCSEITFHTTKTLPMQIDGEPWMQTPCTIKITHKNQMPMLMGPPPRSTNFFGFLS
How it was run: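 Enzyme was preincubated with compound (10-point, 4-fold series) for 15 min at 25 °C in pH 7.5 HEPES buffer with NaCl, 10 mM MgCl2, 1 mM CaCl2, Triton X-100 and DTT. The reaction was started with substrate working solution (40 μM ATP, 200 µM DLG) and run 60 min at 25 °C. ADP was measured by ADP-Glo luminescence, with IC50 by regression.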

SMILES	pEC50 [1]	AUC(0-t) [2] [ng·h/mL]	Cmax [2] [ng/mL]	T1/2, Cmax and AUC compared with compound [2]	AUC(0-inf) [3] [ng·h/mL]	AUC(0-t) [3] [ng·h/mL]	Cmax [3] [ng/mL]	half-life [3] [h]	T1/2, Cmax and AUC compared with compound [3]	pIC50 [4]	AUC(0-inf) [2] [ng·h/mL]	half-life [2] [h]	maximal fold induction [1]	activity at 0.1 µM [1] [%]
Cn1c(=O)nc(N2CCOCc3c(C#CC4(C(F)(F)F)CC4)cccc32)c2cc(Cl)c(OCCO)cc21 [Example 13, 6-chloro-7-(2-hydroxyethoxy)-1-methyl-4-(6-((1-(trifluoromethyl)cyclopropyl)ethynyl)-2,3-dihydrobenzo[e][1,4]oxazepin-1(5H)-yl)quinazolin-2(1H)-one]	6.88	7520	455	longer T1/2, much higher Cmax and AUC	28400	26200	2400	6.13	longer T1/2, much higher Cmax and AUC	> 9.00			22.5	
Cn1c(=O)nc(N2CCOCc3c(C#CC4(C(F)(F)F)CC4)cccc32)c2cc(C#N)c(OC3CCOC3)cc21 (stereo not shown) [Example 12, 1-methyl-2-oxo-7-((tetrahydrofuran-3-yl)oxy)-4-(6-((1-(trifluoromethyl)cyclopropyl)ethynyl)-2,3-dihydrobenzo[e][1,4]oxazepin-1(5H)-yl)-1,2-dihydroquinazoline-6-carbonitrile]	5.97				7870	7740	1690	1.03		> 9.00			14.2	311

Second part, led by results:

pEC50 [1]	AUC(0-t) [2] [ng·h/mL]	Cmax [2] [ng/mL]	T1/2, Cmax and AUC compared with compound [2]	AUC(0-inf) [3] [ng·h/mL]	AUC(0-t) [3] [ng·h/mL]	Cmax [3] [ng/mL]	half-life [3] [h]	T1/2, Cmax and AUC compared with compound [3]	pIC50 [4]	AUC(0-inf) [2] [ng·h/mL]	half-life [2] [h]	SMILES	maximal fold induction [1]	activity at 0.1 µM [1] [%]
6.22	10200	724	longer T1/2, much higher Cmax and AUC	15500	15300	2230	3.28	longer T1/2, much higher Cmax and AUC	> 9.00	12000	8.09	Cn1c(=O)nc(N2CCOCc3c(C#CC4CC4)cccc32)c2cc(Cl)c(OCCO)cc21 [Example 41, 6-chloro-4-(6-(cyclopropylethynyl)-2,3-dihydrobenzo[e][1,4]oxazepin-1(5H)-yl)-7-(2-hydroxyethoxy)-1-methylquinazolin-2(1H)-one]	26.3	510
6.15									> 9.00			Cn1c(=O)nc(N2CCOCc3c(C#CC4(C(F)(F)F)CC4)cccc32)c2cc(C#N)c(OCCN)cc21 [Example 33, 7-(2-aminoethoxy)-1-methyl-2-oxo-4-(6-((1-(trifluoromethyl)cyclopropyl)ethynyl)-2,3-dihydrobenzo[e][1,4]oxazepin-1(5H)-yl)-1,2-dihydroquinazoline-6-carbonitrile]	38.4	631
6.35	3470	292		7110	6660	985	2.03		> 9.00	3760	6.32	Cn1c(=O)nc(N2CCOCc3c(C#CC4(C(F)(F)F)CC4)cccc32)c2cc(Cl)ccc21 [Example 5, 6-chloro-1-methyl-4-(6-((1-(trifluoromethyl)cyclopropyl)ethynyl)-2,3-dihydrobenzo[e][1,4]oxazepin-1(5H)-yl)quinazolin-2(1H)-one]	7.7	395
